Source: patent publication US20120058894A1, “SYNERGISTIC COMBINATIONS WHICH ARE COMPATIBLE WITH CULTIVATED PLANTS AND WHICH COMPRISE HERBICIDES SELECTED FROM THE GROUP CONSISTING OF BENZOYLCYCLOHEXANEDIONES FOR USE IN RICE CROPS” (Bayer CropScience AG, priority 2007, published 2012)

Assays:
Type in all cases: in vivo
ORYZA (Oryza sativa) = assay: Post-emergence greenhouse test, damage to cultivated plant rice; conditions: for Damage ORYZA: dosage 300 g a.i./ha
Method: (§1) Seeds or root pieces of harmful mono- and dicotyledonous plants are placed in sandy clay soil in pots, covered with earth and secured in a greenhouse under good growing conditions (temperature, air humidity, water supply). Approximately three weeks after sowing, the plants are treated at the 2- to 3-leaf stage with the herbicidal active substances or the combinations according to the invention. The combinations according to the invention formulated as wettable powders or as emulsion concentrates are sprayed, in spray application, on to the green plant parts in different dosages with a water application rate of 600 to 800 I/ha (corrected). Immediately up to a few days after application, the test receptacles accumulate water over the ground surface by up to 30 mm. With the water application (submerged application), on the other hand, the ground in the closed test receptacle is already covered with the paddy water up to 30 mm at the time of the application. The formulated active substances are here added directly to the paddy water. After an exposure time of the test plants in the greenhouse of an additional 3 to 4 weeks under optimum growing conditions, the effect of the preparations is evaluated visually in comparison with untreated controls. […] In this connection, actions of the combinations according to the invention which exceed the formal sum of the actions of the herbicides when applied individually are frequently observed. The values observed for the tests show, with suitable low dosages, an action of the combinations which lie above the expected values according to Colby.
(§2) When the combinations according to the invention are used, herbicidal actions on a harmful plant species which exceed the formal sum of the actions of the herbicides present when applied singly are frequently observed. Alternatively, it can in many cases be observed that a lower application rate for the herbicidal combination is needed in order to achieve, in comparison with the individual preparations, the same action with a harmful plant species. Such improvements in action or improvements in effectiveness or economies in application rate are a strong indication of a synergistic effect. If the observed activity values already exceed the formal sum of the values for the tests with individual applications, then they likewise exceed the expected value according to Colby, which is calculated according to the following formula and is likewise regarded as an indication of synergy (cf. S. R. Colby in Weeds, 15 (1967), pp. 20 to 22):
(§3) In this connection: • A, B=action of the component A or B in percent at a dosage of a or b grams ai/ha, • E=expected value in % at a dosage of a+b grams ai/ha.
(§4) The values observed for the test examples mentioned below are greater than (harmful plants) or lower than (cultivated plants) the expected values according to Colby.

[1] = test system: SCPSS (Scirpus juncoides); assay: Post-emergence weed action, greenhouse pot test
Method: as §1, §2, §3, §4

[2] = test system: BRAPL (Brachiaria platyphylla); assay: Post-emergence weed action, greenhouse pot test
Method: as §1, §2, §3, §4

[3] = test system: LEFCH (Leptochloa chinensis); assay: Post-emergence weed action, greenhouse pot test
Method: as §1, §2, §3, §4

[4] = test system: CYPES (Cyperus serotinus); assay: Post-emergence weed action, greenhouse pot test; conditions: Table 4, post-emergence, dosage 100 g a.i./ha
Method: as §1, §2, §3, §4

[5] = test system: ECHCG (Echinochloa crus galli); assay: Post-emergence weed action, greenhouse pot test; conditions: Table 4, post-emergence, dosage 100 g a.i./ha
Method: as §1, §2, §3, §4

[6] = Table 2, post-emergence, dosage 12.5 g a.i./ha
[7] = Table 5, post-emergence, dosage 62.5 g a.i./ha
[8] = Table 5, post-emergence, dosage 12.5 g a.i./ha
[9] = Table 3, post-emergence, dosage 6.25 g a.i./ha
[10] = Table 6, post-emergence, dosage 6.25 g a.i./ha

In the case of CS(=O)(=O)c1ccc(C(=O)C2C(=O)CCCC2=O)c(Cl)c1COCC(F)(F)F [Compound A1, tembotrione], the “Action/Damage ORYZA” value (ORYZA (Oryza sativa); in vivo) is reported as 10%, the “Action against SCPSS” value ([1]; Table 7, post-emergence, dosage 12.5 g a.i./ha) is reported as 40% and the “Action against SCPSS” value ([1]; Table 8, post-emergence, dosage 12.5 g a.i./ha) is reported as 40%. The “Action against SCPSS” value ([1]; Table 9, post-emergence, dosage 12.5 g a.i./ha) was 40%, the “Action against SCPSS” value ([1]; Table 10, post-emergence, dosage 12.5 g a.i./ha) was 40% and the “Action/Damage BRAPL” value [2, 6] was 20%.
In the case of Cc1ccc(S(=O)(=O)Oc2c(C(=O)c3ccc(Cl)cc3Cl)c(C)nn2C)cc1 [Compound B6, pyrazolynate], the “Action against SCPSS” value ([1]; Table 9, post-emergence, dosage 250 g a.i./ha) is reported as 30%.
CS(=O)(=O)c1ccc(C(=O)C2C(=O)CCCC2=O)c(Cl)c1COCC1CCCO1 (stereo not shown) [Compound A2, tefuryltrione] was tested, and the “Action/Damage ORYZA” value (ORYZA (Oryza sativa); [7]) was 10%, the “Action against SCPSS” value ([1]; Table 7, post-emergence, dosage 37.5 g a.i./ha) was 50% and the “Action/Damage BRAPL” value [2, 7] was 25%.
With CCOC(=O)C1=NOC(c2ccccc2)(c2ccccc2)C1 [Compound C1, isoxadifen-ethyl] the “Damage ORYZA” value (ORYZA (Oryza sativa); Table 11, post-emergence) was 0%, the “Damage ORYZA” value (ORYZA (Oryza sativa); Table 12, post-emergence) was 0% and the “Wirkung gegen LEFCH” value ([3]; Table 4, post-emergence, dosage 100 g a.i./ha) was 0%. For the same molecule, the “Wirkung gegen CYPES” value [4] was 0% and the “Wirkung gegen ECHCG” value [5] was 0%.
For CS(=O)(=O)c1ccc(C(=O)C2C(=O)CCCC2=O)c(Cl)c1 [Compound B1, sulcotrione], the “Action/Damage ORYZA” value (ORYZA (Oryza sativa); [6]) was 5%, the “Action/Damage ORYZA” value (ORYZA (Oryza sativa); [8]) was 5% and the “Action/Damage BRAPL” value [2, 6] was 0%. For the same molecule, the “Action/Damage BRAPL” value [2, 8] was 0%.
CCCCOC(=O)[C@@H](C)Oc1ccc(Oc2ccc(C#N)cc2F)cc1 [Compound B3, cyhalofop-butyl] was tested, and the “Action/Damage ORYZA” value (ORYZA (Oryza sativa); [9]) was 0%, the “Action/Damage ORYZA” value (ORYZA (Oryza sativa); [10]) was 0% and the “Action/Damage LEFCH” value [3, 10] was 0%. For the same molecule, the “Action/Damage BRAPL” value [2, 9] was 0%.
In the case of CC(C)(NC(=O)C(Br)C(C)(C)C)c1ccccc1 (stereo not shown) [Compound B7, bromobutide], the “Action against SCPSS” value ([1]; Table 10, post-emergence, dosage 125 g a.i./ha) is reported as 70%.
For CS(=O)(=O)c1ccc(C(=O)C2=C(Sc3ccccc3)C3CCC(C3)C2=O)c(Cl)c1 (stereo not shown) [Compound B5, benzobicyclon], the “Action against SCPSS” value ([1]; Table 8, post-emergence, dosage 37.5 g a.i./ha) was 60%.
